According to US10537563B2, “Methods for treating ocular disease using inhibitors of CSF-1R” (NOVARTIS AG, priority 2016, dated 2020):

Key:
RAF1_4_CR = RAF1_4_CR (Homo sapiens, UniProt P04049); experiment: In vitro kinase assay (Table 1); type: biochemical
Pim3 = Pim3 (Homo sapiens, UniProt Q86V86); experiment: In vitro kinase assay (Table 1); type: biochemical
human macrophages = experiment: In vitro survival of human macrophages (CellTiter-Glo); type: cell-based; conditions: 1 and 10 μM
Method: (§1) Freshly isolated human PBMCs were used to purify human monocytes by negative selection using an indirect magnetic labeling system. […] Soluble factors such as cytokines (VEGFa, IL-6 etc.) and chemokines (IL-8, MCP-1, MMP9 etc.) in the culture supernatant were measured using commercial ELISA kits. The in vitro survival of human macrophages was measured using a commercially available CellTiter-Glo® system. Most observed results were repeated in multiple donors (n>5).

Ck1 delta = Ck1 delta (Homo sapiens, UniProt P48730); experiment: In vitro kinase assay (Table 1); type: biochemical
Ck1 delta, sequence (P48730 whole entry): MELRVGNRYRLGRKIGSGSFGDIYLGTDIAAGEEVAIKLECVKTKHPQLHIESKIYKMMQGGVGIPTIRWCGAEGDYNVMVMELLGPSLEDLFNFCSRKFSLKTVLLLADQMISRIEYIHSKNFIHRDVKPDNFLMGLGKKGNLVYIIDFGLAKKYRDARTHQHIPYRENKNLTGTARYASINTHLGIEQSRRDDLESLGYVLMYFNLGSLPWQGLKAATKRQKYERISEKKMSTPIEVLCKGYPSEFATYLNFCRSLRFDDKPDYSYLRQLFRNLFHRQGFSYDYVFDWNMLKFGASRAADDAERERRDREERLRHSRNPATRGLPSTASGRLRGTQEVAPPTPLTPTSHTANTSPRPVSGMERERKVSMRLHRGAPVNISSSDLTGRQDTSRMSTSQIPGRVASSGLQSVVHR

BAF/Tel-ZAP70-1.1/sACP = target: T1, BAF/Tel-ZAP70-1.1/sACP (Homo sapiens, UniProt P43403); experiment: BaF3 proliferation assay; type: cell-based, murine
T1 construct: fused on or other part: P41212 (Transcription factor ETV6)
T1 sequence (P43403 338-600 limits assumed, change not shown): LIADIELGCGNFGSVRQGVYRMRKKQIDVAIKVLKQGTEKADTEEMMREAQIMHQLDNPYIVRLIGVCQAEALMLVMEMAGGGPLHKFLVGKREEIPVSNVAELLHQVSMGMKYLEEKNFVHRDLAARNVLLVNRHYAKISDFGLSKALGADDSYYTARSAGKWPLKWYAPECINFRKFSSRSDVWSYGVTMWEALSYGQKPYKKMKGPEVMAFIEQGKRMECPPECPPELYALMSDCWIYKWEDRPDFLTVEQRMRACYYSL

TAK1 = TAK1 (Homo sapiens, UniProt O43318); experiment: In vitro kinase assay (Table 1); type: biochemical
BAF/Tel-Lyn-1.2/sACP = target: T2, BAF/Tel-Lyn-1.2/sACP (Homo sapiens, UniProt P07948); experiment: BaF3 proliferation assay; type: cell-based, murine
T2 construct: fused on or other part: P41212 (Transcription factor ETV6)
T2 sequence (P07948 247-501 limits assumed, change not shown): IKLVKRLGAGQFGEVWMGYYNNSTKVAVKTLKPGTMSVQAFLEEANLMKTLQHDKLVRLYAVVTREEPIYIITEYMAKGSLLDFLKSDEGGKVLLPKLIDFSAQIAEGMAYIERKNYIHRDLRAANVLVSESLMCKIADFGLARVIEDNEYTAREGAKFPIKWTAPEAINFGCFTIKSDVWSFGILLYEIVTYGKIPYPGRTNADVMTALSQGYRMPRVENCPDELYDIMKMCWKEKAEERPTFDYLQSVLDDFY

TRKC = TRKC (Homo sapiens, UniProt Q16288); experiment: In vitro kinase assay (Table 1); type: biochemical
cRaf = cRaf (Homo sapiens, UniProt P04049); experiment: In vitro kinase assay (Table 1); type: biochemical
cRaf, sequence (P04049 whole entry, species assumed): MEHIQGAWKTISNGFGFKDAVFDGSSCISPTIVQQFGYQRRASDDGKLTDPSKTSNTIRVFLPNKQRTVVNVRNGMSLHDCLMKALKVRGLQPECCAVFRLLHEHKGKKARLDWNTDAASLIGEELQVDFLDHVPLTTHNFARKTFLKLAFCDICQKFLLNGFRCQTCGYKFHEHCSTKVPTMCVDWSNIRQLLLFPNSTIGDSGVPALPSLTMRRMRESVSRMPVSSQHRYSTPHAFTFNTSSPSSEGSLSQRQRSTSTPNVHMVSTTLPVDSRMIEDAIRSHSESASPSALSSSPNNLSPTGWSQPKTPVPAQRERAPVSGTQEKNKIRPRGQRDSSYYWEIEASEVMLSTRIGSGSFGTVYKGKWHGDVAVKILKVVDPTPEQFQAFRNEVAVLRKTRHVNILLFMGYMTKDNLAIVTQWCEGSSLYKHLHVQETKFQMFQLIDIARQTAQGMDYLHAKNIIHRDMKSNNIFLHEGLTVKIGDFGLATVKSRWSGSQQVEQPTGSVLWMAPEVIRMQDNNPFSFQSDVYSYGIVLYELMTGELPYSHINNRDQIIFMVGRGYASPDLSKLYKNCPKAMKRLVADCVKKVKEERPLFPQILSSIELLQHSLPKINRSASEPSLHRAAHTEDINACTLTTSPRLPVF

BaF-Tel-IGF1R = target: T3, BaF-Tel-IGF1R (Homo sapiens, UniProt P08069); experiment: BaF3 proliferation assay; type: cell-based, murine
T3 construct: fused on or other part: P41212 (Transcription factor ETV6)

BAF/Tel-TIE2-1.2/sACP = target: T4, BAF/Tel-TIE2-1.2/sACP (Homo sapiens, UniProt Q02763); experiment: BaF3 proliferation assay; type: cell-based, murine
T4 construct: fused on or other part: P41212 (Transcription factor ETV6)

BAF/Tel-BMX-1.2/sACP = target: T5, BAF/Tel-BMX-1.2/sACP (Homo sapiens, UniProt P51813); experiment: BaF3 proliferation assay; type: cell-based, murine
T5 construct: fused on or other part: P41212 (Transcription factor ETV6)

Met (h) = target: T6, Met (h) (Homo sapiens, UniProt P08581); experiment: Kinase profiling at Invitrogen; type: biochemical
T6 construct: purchased Invitrogen
T6 sequence (P08581 25-1390): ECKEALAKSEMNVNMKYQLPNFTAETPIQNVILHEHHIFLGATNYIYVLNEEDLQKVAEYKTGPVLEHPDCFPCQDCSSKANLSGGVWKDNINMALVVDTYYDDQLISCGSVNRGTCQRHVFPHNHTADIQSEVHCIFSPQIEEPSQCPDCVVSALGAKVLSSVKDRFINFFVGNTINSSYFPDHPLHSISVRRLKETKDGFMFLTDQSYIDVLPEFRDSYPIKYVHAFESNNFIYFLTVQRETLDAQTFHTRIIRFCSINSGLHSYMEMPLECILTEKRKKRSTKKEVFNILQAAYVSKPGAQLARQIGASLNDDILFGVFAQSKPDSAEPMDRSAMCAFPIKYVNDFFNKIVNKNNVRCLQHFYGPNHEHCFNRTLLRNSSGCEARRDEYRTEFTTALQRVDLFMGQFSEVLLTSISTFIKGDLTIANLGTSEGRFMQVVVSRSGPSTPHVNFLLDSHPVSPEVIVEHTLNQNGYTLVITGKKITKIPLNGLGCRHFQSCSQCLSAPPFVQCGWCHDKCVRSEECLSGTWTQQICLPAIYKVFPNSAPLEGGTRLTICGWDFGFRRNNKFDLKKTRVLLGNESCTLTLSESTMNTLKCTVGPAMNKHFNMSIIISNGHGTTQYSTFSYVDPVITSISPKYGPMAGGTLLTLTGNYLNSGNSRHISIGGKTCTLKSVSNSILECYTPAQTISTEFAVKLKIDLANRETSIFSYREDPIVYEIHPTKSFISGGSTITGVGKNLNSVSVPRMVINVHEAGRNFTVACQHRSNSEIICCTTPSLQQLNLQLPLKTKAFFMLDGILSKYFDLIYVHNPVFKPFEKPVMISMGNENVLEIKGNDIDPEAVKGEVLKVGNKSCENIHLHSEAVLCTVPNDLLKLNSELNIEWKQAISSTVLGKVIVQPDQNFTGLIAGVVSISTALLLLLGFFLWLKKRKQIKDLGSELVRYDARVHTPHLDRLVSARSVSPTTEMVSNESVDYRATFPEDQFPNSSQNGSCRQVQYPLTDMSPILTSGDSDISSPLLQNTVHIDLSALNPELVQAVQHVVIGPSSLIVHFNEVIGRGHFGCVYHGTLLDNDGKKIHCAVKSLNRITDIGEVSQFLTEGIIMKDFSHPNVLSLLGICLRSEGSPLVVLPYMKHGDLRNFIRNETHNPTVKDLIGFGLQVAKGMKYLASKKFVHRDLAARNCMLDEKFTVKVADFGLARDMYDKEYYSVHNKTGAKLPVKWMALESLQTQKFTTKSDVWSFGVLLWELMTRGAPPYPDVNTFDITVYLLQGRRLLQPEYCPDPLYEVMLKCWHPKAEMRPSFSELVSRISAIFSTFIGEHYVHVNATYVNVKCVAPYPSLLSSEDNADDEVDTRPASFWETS

Blk = Blk (Homo sapiens, UniProt P51451); experiment: In vitro kinase assay (Table 1); type: biochemical
Blk, sequence (P51451 whole entry, species assumed): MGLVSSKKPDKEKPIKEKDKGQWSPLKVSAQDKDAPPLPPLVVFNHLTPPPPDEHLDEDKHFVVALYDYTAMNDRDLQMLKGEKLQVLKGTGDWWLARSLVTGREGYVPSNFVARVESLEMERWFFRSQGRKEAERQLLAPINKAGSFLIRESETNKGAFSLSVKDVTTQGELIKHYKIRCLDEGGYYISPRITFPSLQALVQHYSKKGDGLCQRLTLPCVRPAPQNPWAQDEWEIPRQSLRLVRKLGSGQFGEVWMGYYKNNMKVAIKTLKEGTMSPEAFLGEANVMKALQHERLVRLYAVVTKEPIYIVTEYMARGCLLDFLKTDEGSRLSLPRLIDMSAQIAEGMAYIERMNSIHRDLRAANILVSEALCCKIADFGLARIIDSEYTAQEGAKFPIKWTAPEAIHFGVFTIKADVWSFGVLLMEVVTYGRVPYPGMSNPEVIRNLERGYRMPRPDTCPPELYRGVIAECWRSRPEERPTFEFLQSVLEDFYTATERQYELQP

Erk1 = Erk1 (Homo sapiens, UniProt P27361); experiment: In vitro kinase assay (Table 1); type: biochemical
Erk1, sequence (P27361 whole entry, species assumed): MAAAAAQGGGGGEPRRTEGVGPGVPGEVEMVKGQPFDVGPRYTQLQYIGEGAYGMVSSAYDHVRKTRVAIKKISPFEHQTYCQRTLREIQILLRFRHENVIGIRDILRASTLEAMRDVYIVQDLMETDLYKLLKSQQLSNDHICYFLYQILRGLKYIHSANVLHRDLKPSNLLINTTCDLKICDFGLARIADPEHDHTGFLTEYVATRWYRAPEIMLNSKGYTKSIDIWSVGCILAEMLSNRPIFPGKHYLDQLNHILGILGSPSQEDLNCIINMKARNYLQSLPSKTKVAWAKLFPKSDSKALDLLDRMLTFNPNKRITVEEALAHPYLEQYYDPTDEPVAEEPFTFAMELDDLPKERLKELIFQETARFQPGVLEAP

Hyl = Hyl (Homo sapiens, UniProt P42679); experiment: In vitro kinase assay (Table 1); type: biochemical
BAF/Tel-TRKC-Q2/sACP = target: T7, BAF/Tel-TRKC-Q2/sACP (Homo sapiens, UniProt Q16288); experiment: BaF3 proliferation assay; type: cell-based, murine
T7 construct: fused on or other part: P41212 (Transcription factor ETV6)

BAF/Tel-InsR-Q.4/sACP = target: T8, BAF/Tel-InsR-Q.4/sACP (Homo sapiens, UniProt P06213); experiment: BaF3 proliferation assay; type: cell-based, murine
T8 construct: fused on or other part: P41212 (Transcription factor ETV6)

Alk = Alk (Homo sapiens, UniProt Q9UM73); experiment: In vitro kinase assay (Table 1); type: biochemical
PIK4Cbeta = PIK4Cbeta (Homo sapiens, UniProt Q9UBF8); experiment: In vitro kinase assay (Table 1); type: biochemical
Lck = Lck (Homo sapiens, UniProt P06239); experiment: In vitro kinase assay (Table 1); type: biochemical
CSF-1 receptor = CSF-1 receptor expression on human monocytes; type: cell-based; conditions: day 1 to day 3
Method: as §1

BAF/Tel-JAK1-S1.2/sACP = target: T9, BAF/Tel-JAK1-S1.2/sACP (Homo sapiens, UniProt P23458); experiment: BaF3 proliferation assay; type: cell-based, murine
T9 construct: fused on or other part: P41212 (Transcription factor ETV6)

BAF/Tel-Lck-2.1/sACP = target: T10, BAF/Tel-Lck-2.1/sACP (Homo sapiens, UniProt P06239); experiment: BaF3 proliferation assay; type: cell-based, murine
T10 construct: fused on or other part: P41212 (Transcription factor ETV6)

PIK3C_VPS34 = PIK3C_VPS34 (Homo sapiens, UniProt Q8NEB9); experiment: In vitro kinase assay (Table 1); type: biochemical
Fyn = Fyn (Homo sapiens, UniProt P06241); experiment: In vitro kinase assay (Table 1); type: biochemical
Ron = Ron (Homo sapiens, UniProt Q04912); experiment: In vitro kinase assay (Table 1); type: biochemical
PAK2 = PAK2 (Homo sapiens, UniProt Q13177); experiment: In vitro kinase assay (Table 1); type: biochemical
PAK2, sequence (Q13177 whole entry, species assumed): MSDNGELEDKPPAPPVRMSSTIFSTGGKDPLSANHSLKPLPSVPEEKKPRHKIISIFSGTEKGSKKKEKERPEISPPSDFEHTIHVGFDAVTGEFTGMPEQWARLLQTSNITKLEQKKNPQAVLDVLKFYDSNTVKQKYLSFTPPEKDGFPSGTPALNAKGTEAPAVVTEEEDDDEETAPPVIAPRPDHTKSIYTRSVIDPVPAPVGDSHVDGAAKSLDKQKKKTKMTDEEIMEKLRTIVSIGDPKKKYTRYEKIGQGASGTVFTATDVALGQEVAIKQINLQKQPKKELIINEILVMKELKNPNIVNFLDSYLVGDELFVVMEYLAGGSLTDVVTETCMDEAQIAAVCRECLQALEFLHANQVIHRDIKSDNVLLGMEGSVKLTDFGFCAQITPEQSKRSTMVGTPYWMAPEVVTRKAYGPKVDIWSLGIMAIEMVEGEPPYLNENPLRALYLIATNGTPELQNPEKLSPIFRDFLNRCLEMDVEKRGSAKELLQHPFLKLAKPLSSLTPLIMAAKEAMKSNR

BaF-wt = experiment: BaF3 proliferation assay; type: cell-based, murine; conditions: Mus musculus
[1] = target: T11, BAF/Tel-IGF1R-FL-N.1/sACP (Homo sapiens, UniProt P08069); experiment: BaF3 proliferation assay; type: cell-based, murine
T11 construct: BAF/Tel-IGF1R-FL- N.1/sACP; fused on or other part: P41212 (Transcription factor ETV6)

Insulin RK = Insulin RK (Homo sapiens, UniProt P06213); experiment: In vitro kinase assay (Table 1); type: biochemical
Src = Src (Homo sapiens, UniProt P12931); experiment: In vitro kinase assay (Table 1); type: biochemical
BaF-Tel-KDR = target: T12, BaF-Tel-KDR (Homo sapiens, UniProt P35968); experiment: BaF3 proliferation assay; type: cell-based, murine
T12 construct: fused on or other part: P41212 (Transcription factor ETV6)

Plk1 = Plk1 (Homo sapiens, UniProt P53350); experiment: In vitro kinase assay (Table 1); type: biochemical
BAF/Tel-FGFR2-Q1/sACP = target: T13, BAF/Tel-FGFR2-Q1/sACP (Homo sapiens, UniProt P21802); experiment: BaF3 proliferation assay; type: cell-based, murine
T13 construct: fused on or other part: P41212 (Transcription factor ETV6)

PKC_epsilon = PKC_epsilon (Homo sapiens, UniProt Q02156); experiment: In vitro kinase assay (Table 1); type: biochemical

RAF1_4_CR, sequence (P04049 whole entry): as the sequence (P04049 whole entry, species assumed) above

CNC(=O)c1cc(Oc2ccc3nc(NC4CCCCC4O)sc3c2)ccn1 (centres unmarked) [Compound (I)]
> 10 µM: IC50 (Ck1 delta) | EC50 (BAF/Tel-ZAP70-1.1/sACP) | IC50 (TAK1) | EC50 (BAF/Tel-Lyn-1.2/sACP) | IC50 (TRKC) | IC50 (cRaf) | EC50 (BaF-Tel-IGF1R) | EC50 (BAF/Tel-TIE2-1.2/sACP) | EC50 (BAF/Tel-BMX-1.2/sACP) | IC50 (Blk) | IC50 (Erk1) | IC50 (Hyl) | EC50 (BAF/Tel-TRKC-Q2/sACP) | EC50 (BAF/Tel-InsR-Q.4/sACP) | IC50 (Alk) | IC50 (Lck) | EC50 (BAF/Tel-JAK1-S1.2/sACP) | EC50 (BAF/Tel-Lck-2.1/sACP) | IC50 (Fyn) | IC50 (Ron) | EC50 (BaF-wt) | EC50 [1] | IC50 (Insulin RK) | IC50 (Src) | EC50 (BaF-Tel-KDR) | EC50 (BAF/Tel-FGFR2-Q1/sACP)
0%: inhibition at 0.5 µM (Met (h); read-out: % inhibition @ 0.5 μM, Met (h))
4%: inhibition at 5 µM (Met (h); read-out: % inhibition @ 5 μM, Met (h))
decreased the viability: viability of human macrophages (CTG values and light microscope pictures) (human macrophages)
37%: inhibition at 20 µM (Met (h); read-out: % inhibition @ 20 μM, Met (h))
increased: CSF-1 receptor expression on human monocytes (CSF-1 receptor)
> 25 µM: IC50 (RAF1_4_CR) | IC50 (Pim3) | IC50 (PIK4Cbeta) | IC50 (PIK3C_VPS34) | IC50 (PAK2) | IC50 (Plk1) | IC50 (PKC_epsilon)
